Measurements published in patent US20090105305A1, “Therapeutic Agents - 550” (AstraZeneca AB, priority 2006, published 2009).

Target: T1, human Fatty Acid Synthase (Homo sapiens, UniProt P49327)
T1 construct: made in house
Test: Human FAS enzyme assay (decrease in NADPH fluorescence)
Assay type: biochemical
Details: compounds excluded from the claims by proviso
Method in brief: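 Readout: decrease in NADPH fluorescence (340 nm ex, 460 nm em) after 60 min at RT, background-subtracted against a read taken before substrate. Substrate mix contained 500 μM malonyl-CoA and 150 μM acetyl-CoA. It was added after 15 min enzyme (0.4 μg in-house human FAS)–compound–NADPH preincubation in Tris pH 7.5 buffer; % inhibition was fitted to IC50.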

T1 sequence (P49327 whole entry): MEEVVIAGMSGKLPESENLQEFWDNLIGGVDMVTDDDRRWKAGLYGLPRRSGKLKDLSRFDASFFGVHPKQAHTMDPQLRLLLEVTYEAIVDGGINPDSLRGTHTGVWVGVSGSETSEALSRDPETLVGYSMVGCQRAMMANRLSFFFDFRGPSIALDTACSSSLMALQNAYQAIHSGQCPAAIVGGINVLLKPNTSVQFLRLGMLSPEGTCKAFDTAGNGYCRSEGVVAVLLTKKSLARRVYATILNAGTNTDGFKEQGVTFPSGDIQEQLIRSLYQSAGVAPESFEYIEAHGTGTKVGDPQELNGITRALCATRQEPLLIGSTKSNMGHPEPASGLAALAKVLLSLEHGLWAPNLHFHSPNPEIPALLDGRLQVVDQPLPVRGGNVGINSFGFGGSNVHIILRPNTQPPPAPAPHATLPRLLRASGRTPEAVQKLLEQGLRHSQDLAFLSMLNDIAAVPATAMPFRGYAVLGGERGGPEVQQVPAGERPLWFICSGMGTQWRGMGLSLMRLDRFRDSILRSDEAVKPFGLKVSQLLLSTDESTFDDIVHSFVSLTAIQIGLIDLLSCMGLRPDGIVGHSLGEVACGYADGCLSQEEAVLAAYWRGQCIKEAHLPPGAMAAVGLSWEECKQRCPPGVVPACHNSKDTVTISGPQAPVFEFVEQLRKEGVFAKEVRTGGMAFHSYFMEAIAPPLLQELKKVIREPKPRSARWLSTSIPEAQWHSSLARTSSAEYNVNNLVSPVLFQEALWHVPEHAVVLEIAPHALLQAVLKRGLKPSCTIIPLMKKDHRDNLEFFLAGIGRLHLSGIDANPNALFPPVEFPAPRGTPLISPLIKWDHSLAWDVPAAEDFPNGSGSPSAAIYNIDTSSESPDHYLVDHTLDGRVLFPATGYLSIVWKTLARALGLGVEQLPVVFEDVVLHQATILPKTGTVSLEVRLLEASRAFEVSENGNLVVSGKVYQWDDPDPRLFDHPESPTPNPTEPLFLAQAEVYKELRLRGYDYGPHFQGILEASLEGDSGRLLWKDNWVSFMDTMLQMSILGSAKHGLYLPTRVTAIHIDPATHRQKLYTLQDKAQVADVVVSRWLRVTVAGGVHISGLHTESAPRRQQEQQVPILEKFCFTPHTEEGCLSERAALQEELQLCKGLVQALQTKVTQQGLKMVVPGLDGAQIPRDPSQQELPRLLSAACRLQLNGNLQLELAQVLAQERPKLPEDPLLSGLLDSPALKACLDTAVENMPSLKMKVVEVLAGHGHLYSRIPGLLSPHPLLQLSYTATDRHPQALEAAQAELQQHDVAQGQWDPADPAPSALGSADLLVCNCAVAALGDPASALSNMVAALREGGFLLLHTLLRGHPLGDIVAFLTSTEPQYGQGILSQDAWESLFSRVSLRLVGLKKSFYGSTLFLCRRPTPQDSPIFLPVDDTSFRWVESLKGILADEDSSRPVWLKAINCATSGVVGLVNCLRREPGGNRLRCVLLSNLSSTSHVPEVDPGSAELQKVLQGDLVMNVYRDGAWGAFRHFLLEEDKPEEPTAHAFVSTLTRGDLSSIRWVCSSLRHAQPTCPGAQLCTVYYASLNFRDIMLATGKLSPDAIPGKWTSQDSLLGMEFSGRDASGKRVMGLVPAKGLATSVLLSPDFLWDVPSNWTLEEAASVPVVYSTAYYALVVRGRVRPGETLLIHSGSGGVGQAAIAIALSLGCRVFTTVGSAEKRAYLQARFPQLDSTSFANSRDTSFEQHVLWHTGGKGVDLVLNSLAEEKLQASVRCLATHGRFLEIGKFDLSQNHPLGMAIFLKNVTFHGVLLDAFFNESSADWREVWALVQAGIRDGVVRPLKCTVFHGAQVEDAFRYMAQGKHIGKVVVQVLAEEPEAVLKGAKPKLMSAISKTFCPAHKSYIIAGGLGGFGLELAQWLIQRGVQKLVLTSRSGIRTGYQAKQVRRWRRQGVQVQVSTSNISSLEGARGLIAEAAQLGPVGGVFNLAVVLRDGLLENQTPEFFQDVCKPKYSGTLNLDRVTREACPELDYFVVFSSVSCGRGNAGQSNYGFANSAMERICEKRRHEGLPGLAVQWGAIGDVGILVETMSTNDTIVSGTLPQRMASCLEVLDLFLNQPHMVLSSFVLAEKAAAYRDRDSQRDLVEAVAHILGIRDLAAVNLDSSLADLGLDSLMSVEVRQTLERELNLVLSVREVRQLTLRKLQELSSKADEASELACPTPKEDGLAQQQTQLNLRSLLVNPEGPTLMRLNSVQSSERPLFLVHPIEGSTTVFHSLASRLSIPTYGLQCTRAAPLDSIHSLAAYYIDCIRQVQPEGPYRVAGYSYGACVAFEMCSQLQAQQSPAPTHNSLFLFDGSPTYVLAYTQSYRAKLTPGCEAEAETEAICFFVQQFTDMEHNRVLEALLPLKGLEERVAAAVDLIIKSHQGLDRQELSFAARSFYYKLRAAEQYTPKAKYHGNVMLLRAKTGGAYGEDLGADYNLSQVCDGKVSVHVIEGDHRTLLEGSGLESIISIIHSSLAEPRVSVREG

| Compound | IC50s in the range of about 0.001 μM to about 30 μM |
| --- | --- |
| Cc1ccc(C(=O)N2CCC(O)(c3ccccc3F)CC2)cc1NS(C)(=O)=O [N-[5-[4-(2-fluorophenyl)-4-hydroxypiperidine-1-carbonyl]-2-methylphenyl]methanesulfonamide] | do not have IC50s in the range of about 0.001 μM to about 30 μM |
| COc1ccccc1C1CCN(C(=O)c2ccc(C)c(NS(C)(=O)=O)c2)CC1 [N-[5-[4-(2-methoxyphenyl)piperidine-1-carbonyl]-2-methylphenyl]methanesulfonamide] | do not have IC50s in the range of about 0.001 μM to about 30 μM |
| Cc1ccc(C(=O)N2CCC(c3ccc(C#N)c(C#N)c3)CC2)cc1NS(C)(=O)=O [N-[5-[4-(3,4-dicyanophenyl)piperidine-1-carbonyl]-2-methylphenyl]methanesulfonamide] | do not have IC50s in the range of about 0.001 μM to about 30 μM |
| Cc1ccc(C(=O)N2CCC(c3cccc(Br)c3)CC2)cc1NS(C)(=O)=O [N-[5-[4-(3-bromophenyl)piperidine-1-carbonyl]-2-methylphenyl]methanesulfonamide] | do not have IC50s in the range of about 0.001 μM to about 30 μM |
| Cc1ccc(C(=O)N2CCC(c3cccc(Cl)c3)CC2)cc1NS(C)(=O)=O [N-[5-[4-(3-chlorophenyl)piperidine-1-carbonyl]-2-methylphenyl]methanesulfonamide] | do not have IC50s in the range of about 0.001 μM to about 30 μM |
| Cc1ccc(C(=O)N2CCC(c3cccc(C#N)c3)CC2)cc1NS(C)(=O)=O [N-[5-[4-(3-cyanophenyl)piperidine-1-carbonyl]-2-methylphenyl]methanesulfonamide] | do not have IC50s in the range of about 0.001 μM to about 30 μM |
| C#Cc1cccc(C2CCN(C(=O)c3ccc(C)c(NS(C)(=O)=O)c3)CC2)c1 [N-[5-[4-(3-ethynylphenyl)piperidine-1-carbonyl]-2-methylphenyl]methanesulfonamide] | do not have IC50s in the range of about 0.001 μM to about 30 μM |
| Cc1ccc(C(=O)N2CCC(c3cccc(F)c3)CC2)cc1NS(C)(=O)=O [N-[5-[4-(3-fluorophenyl)piperidine-1-carbonyl]-2-methylphenyl]methanesulfonamide] | do not have IC50s in the range of about 0.001 μM to about 30 μM |
| COc1cccc(C2CCN(C(=O)c3ccc(C)c(NS(C)(=O)=O)c3)CC2)c1 [N-[5-[4-(3-methoxyphenyl)piperidine-1-carbonyl]-2-methylphenyl]methanesulfonamide] | do not have IC50s in the range of about 0.001 μM to about 30 μM |
| Cc1ccc(C(=O)N2CCC(O)(c3ccc(Cl)cc3)CC2)cc1NS(C)(=O)=O [N-[5-[4-(4-chlorophenyl)-4-hydroxypiperidine-1-carbonyl]-2-methylphenyl]methanesulfonamide] | do not have IC50s in the range of about 0.001 μM to about 30 μM |
| Cc1ccc(C(=O)N2CCC(c3ccc(C#N)cc3C)CC2)cc1NS(C)(=O)=O [N-[5-[4-(4-cyano-2-methylphenyl)piperidine-1-carbonyl]-2-methylphenyl]methanesulfonamide] | do not have IC50s in the range of about 0.001 μM to about 30 μM |
| Cc1ccc(C(=O)N2CCC(c3cc(F)c(C#N)c(F)c3)CC2)cc1NS(C)(=O)=O [N-[5-[4-(4-cyano-3,5-difluorophenyl)piperidine-1-carbonyl]-2-methylphenyl]methanesulfonamide] | do not have IC50s in the range of about 0.001 μM to about 30 μM |
| CS(=O)(=O)Cc1ccc(C(=O)N2CCC(c3ccc(C#N)cc3)CC2)cc1NS(C)(=O)=O [N-[5-[4-(4-cyanophenyl)piperidine-1-carbonyl]-2-(methylsulfonylmethyl)phenyl]methanesulfonamide] | do not have IC50s in the range of about 0.001 μM to about 30 μM |
| N#Cc1ccc(C2CCN(C(=O)c3ccc(OC(F)(F)F)c(NS(=O)(=O)Cc4ccccc4)c3)CC2)cc1 [N-[5-[4-(4-cyanophenyl)piperidine-1-carbonyl]-2-(trifluoromethoxy)phenyl]-1-phenylmethanesulfonamide] | do not have IC50s in the range of about 0.001 μM to about 30 μM |
| CS(=O)(=O)Nc1cc(C(=O)N2CCC(c3ccc(C#N)cc3)CC2)ccc1OC(F)(F)F [N-[5-[4-(4-cyanophenyl)piperidine-1-carbonyl]-2-(trifluoromethoxy)phenyl]methanesulfonamide] | do not have IC50s in the range of about 0.001 μM to about 30 μM |
| CS(=O)(=O)Nc1cc(C(=O)N2CCC(c3ccc(C#N)cc3)CC2)ccc1F [N-[5-[4-(4-cyanophenyl)piperidine-1-carbonyl]-2-fluorophenyl]methanesulfonamide] | do not have IC50s in the range of about 0.001 μM to about 30 μM |
| C[S+]([O-])c1ccc(C(=O)N2CCC(c3ccc(C#N)cc3)CC2)cc1NS(C)(=O)=O (stereo not shown) [N-[5-[4-(4-cyanophenyl)piperidine-1-carbonyl]-2-methylsulfinylphenyl]methanesulfonamide] | do not have IC50s in the range of about 0.001 μM to about 30 μM |
| Cc1ccc(C(=O)N2CCC(c3ccc(C#CC(C)(C)N)cc3)CC2)cc1NS(C)(=O)=O [N-[5-[4-[4-(3-amino-3-methylbut-1-ynyl)phenyl]piperidine-1-carbonyl]-2-methylphenyl]methanesulfonamide] | do not have IC50s in the range of about 0.001 μM to about 30 μM |
| Cc1ccc(C(=O)N2CCC(c3ccc(CN)cc3)CC2)cc1NS(C)(=O)=O [N-[5-[4-[4-(aminomethyl)phenyl]piperidine-1-carbonyl]-2-methylphenyl]methanesulfonamide] | do not have IC50s in the range of about 0.001 μM to about 30 μM |
| Cc1ccc(C(=O)N2CCC(c3ccc(S(=O)(=O)N4CC[C@@H](O)C4)cc3)CC2)cc1NS(C)(=O)=O [N-[5-[4-[4-[(3R)-3-hydroxypyrrolidin-1-yl]sulfonylphenyl]piperidine-1-carbonyl]-2-methylphenyl]methanesulfonamide] | do not have IC50s in the range of about 0.001 μM to about 30 μM |
| Cc1ccc(C(=O)N2CCC(c3ccc(C#N)c(C(F)(F)F)c3)CC2)cc1NS(C)(=O)=O [N-[5-[4-[4-cyano-3-(trifluoromethyl)phenyl]piperidine-1-carbonyl]-2-methylphenyl]methanesulfonamide] | do not have IC50s in the range of about 0.001 μM to about 30 μM |
| Cc1ccc(C(=O)N2CCC(O)(c3cccc(C(F)(F)F)c3)CC2)cc1NS(C)(=O)=O [N-[5-[4-hydroxy-4-[3-(trifluoromethyl)phenyl]piperidine-1-carbonyl]-2-methylphenyl]methanesulfonamide] | do not have IC50s in the range of about 0.001 μM to about 30 μM |
